From patent publication US7049094B2, “Methods for identifying modulators of N-type ion channel inactivation” (Wyeth, priority 1999, dated 2006)

How the values were obtained:
hKv1.4 channels = biological target: T1, hKv1.4 channels (Homo sapiens, UniProt P22459); experiment: Elimination of N-type inactivation of hKv1.4 channels (CHO cells); type: cell-based; conditions: glutathione keeps channels in reduced (inactivating) state
T1 construct: expressed in transfected cells; host or cells: CHO cells
T1 sequence (P22459 whole entry): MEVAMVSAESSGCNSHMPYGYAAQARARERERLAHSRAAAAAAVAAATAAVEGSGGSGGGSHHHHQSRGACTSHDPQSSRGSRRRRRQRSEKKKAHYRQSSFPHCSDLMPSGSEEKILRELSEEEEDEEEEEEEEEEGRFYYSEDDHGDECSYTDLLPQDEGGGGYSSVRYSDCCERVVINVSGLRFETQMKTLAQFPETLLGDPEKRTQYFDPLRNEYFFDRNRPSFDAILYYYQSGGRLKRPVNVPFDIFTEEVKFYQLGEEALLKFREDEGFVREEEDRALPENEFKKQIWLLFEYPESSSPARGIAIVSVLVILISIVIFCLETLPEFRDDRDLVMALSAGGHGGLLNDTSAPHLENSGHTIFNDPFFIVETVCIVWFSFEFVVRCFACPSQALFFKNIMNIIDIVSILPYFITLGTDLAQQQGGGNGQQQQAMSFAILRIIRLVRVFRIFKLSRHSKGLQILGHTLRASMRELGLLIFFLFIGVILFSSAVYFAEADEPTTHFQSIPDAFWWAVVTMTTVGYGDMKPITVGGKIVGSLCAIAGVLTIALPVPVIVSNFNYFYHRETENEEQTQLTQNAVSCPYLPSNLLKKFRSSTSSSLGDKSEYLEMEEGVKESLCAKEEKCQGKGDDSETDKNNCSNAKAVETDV
Procedure: Compounds active in the yeast assay were examined for their ability to disrupt N-type Kv channel inactivation in CHO cells transfected with hKv1.1 alone, hKv1.1 plus hKvβ1, or hKv1.4, and in Xenopus oocytes injected with the corresponding mRNA's. […] This “disinactivating” effect was potent and dose dependent, with an IC50 ranging from 0.3 μM to […] in CHO cells and a 3–5 fold higher IC50 of 0.9 μM in oocytes. […] In addition to the disinactivating effect of these compounds, a parallel dose-dependent increase in peak current occurred simultaneously with the loss of inactivation. This increase in peak current is probably at least partially due to the removal of inactivation, which uncovers the “true” peak current of the channels in the cell, although other mechanisms such as a stabilization of the open state of the channel may also be occurring. […] At 100 μM, however, Compound “A” blocked approximately 37% of the hKv1.1 current in CHO cells, thus high concentrations of some of these compounds are able to block Kv1.1 channels.
The mechanism of action of these Kv channel modulators (referred to herein as “disinactivators”) was further explored first by altering the voltage protocol so that single voltage steps to 50 mV were applied once every 20 sec (FIG. 8). […]

PTZ-induced seizures = experiment: Protection against pentylenetetrazol-induced seizures; type: in vivo; conditions: Mus musculus; mice, I.P., 30 min before PTZ 85 mg/kg s.c.; read-out: estimated ED50, protection against PTZ-induced seizures
Procedure: FIG. 8. Protection against pentelenetetrazol-induced seizures in the mouse. Adult male mice were treated with valproic acid (FIG. 8a), Compound A (FIG. 8b), and Compound B (FIG. 8c) at doses from 30–178 mg/kg i.p. (n=8/dose). Thirty minutes later, these animals were challenged with pentelenetetrazol (85 mg/kg, SC) and observed for onset of seizures during a 30 minute test period. The number of animals protected from seizures was plotted versus dose of test compound and ED50s were estimated from this dose-response data.
The activities of Kv channel modulators were examined in several in vitro and in vivo seizure models. Field potential recordings were performed in the CA1 region of rat hippocampal slices treated with 10 μM bicuculline to induce multiple population spikes (Albus, H. and R. Williamson, Epilepsia (1998) 39(2):124–139). […] To test this hypothesis directly, the disinactivators were examined for their ability to protect mice from pentylenetetrazol-induced seizures. Mice were pretreated with Compound “D” or Compound “E” (30–300 mg/kg i.p.), valproic acid (156 mg/kg i.p.) or saline. Thirty minutes later, pentylenetetrazol (PTZ; 85 mg/kg, s.c.) was administered and the mice were monitored for development of spontaneous, recurrent seizures (a seizure was defined as loss of righting reflex; see Frey, H.-H. and I. Bartels, Epilepsy Res. (1997) 27:151–164). […]

| Structure (SMILES) | disinactivation of hKv1.4 with glutathione applied (hKv1.4 channels) | ED50 (PTZ-induced seizures) [mg/kg] |
| --- | --- | --- |
| OO [Compound H2O2, H2O2] | Glutathione was able to block the disinactivation |  |
| CCCC(CCC)C(=O)O [valproic acid] |  | 141 |
